Each structure is given as a SMILES string.

The target of one test is PKMYT1 (Homo sapiens (Human), UniProt Q99640). The test is described as follows: In vitro assay: kinase binding to immobilized ligand, captured kinase measured by qPCR. Background: Real-time PCR tracks product formation cycle by cycle.
The target of the next test is LCK (Homo sapiens (Human), UniProt P06239). The description is as above. From the text: Example B-1: In Vitro Assay
Compounds that bind the kinase active site and directly (sterically) or indirectly (allosterically) prevent kinase binding to an immobilized ligand and reduce the amount of kinase captured on the solid support. Screening “hits” were identified by measuring the amount of kinase captured in test versus control samples by using a quantitative, precise and ultra-sensitive qPCR method that detect the associated DNA label. In a similar manner, dissociation constants (Kd's) for test compound-kinase interactions were calculated by measuring the amount of kinase captured on the solid support as a function of the test compound concentration.

Chain of PKMYT1 (Q99640 whole entry): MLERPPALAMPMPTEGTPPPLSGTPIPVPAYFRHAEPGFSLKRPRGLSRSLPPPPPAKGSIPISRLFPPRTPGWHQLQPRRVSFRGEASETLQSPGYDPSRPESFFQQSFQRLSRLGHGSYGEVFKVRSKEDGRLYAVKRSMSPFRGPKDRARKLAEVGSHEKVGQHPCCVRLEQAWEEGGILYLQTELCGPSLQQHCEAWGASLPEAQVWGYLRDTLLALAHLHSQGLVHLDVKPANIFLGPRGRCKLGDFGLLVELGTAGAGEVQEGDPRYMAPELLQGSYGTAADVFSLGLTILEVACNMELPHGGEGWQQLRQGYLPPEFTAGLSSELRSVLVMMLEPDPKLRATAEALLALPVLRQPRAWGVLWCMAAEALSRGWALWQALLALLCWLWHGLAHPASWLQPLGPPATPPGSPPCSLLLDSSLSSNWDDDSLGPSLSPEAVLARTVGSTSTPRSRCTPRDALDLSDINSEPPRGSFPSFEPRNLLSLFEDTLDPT
Chain of LCK (P06239 whole entry): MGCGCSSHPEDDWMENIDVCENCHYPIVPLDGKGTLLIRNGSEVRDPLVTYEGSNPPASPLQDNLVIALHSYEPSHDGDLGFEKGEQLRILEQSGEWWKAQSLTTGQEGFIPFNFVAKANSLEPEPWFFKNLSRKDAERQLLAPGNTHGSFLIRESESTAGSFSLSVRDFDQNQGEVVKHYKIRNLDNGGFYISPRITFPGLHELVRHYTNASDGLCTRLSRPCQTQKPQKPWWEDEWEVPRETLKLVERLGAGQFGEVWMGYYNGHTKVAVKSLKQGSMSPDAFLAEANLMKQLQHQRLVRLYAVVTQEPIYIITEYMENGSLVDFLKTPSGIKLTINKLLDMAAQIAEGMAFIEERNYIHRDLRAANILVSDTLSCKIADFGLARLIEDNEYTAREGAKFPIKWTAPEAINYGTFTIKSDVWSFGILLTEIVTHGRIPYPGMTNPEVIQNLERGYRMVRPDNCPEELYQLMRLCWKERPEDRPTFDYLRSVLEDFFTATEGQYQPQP

As usually defined, the IC50 is the concentration that gives 50% inhibition. For the compound `CCc1ncc2c(C(N)=O)c(N)n(-c3c(C)ccc(O)c3C)c2c1F` [Compound 604, 2-amino-6-ethyl-7-fluoro-1-(3-hydroxy-2,6-dimethyl-phenyl)pyrrolo[3,2-c]pyridine-3-carboxamide], the half-inhibitory concentration (IC50) on PKMYT1 and on LCK was below 50 nM throughout.
As for `Cc1ccc(O)c(C)c1-n1c(N)c(C(N)=O)c2cnc(CCc3nccs3)c(F)c21` [Compound 649], the IC50 on PKMYT1 and at LCK was below 50 nM in each case.
As for `Cc1c(O)cc(F)c(C)c1-n1c(N)c(C(N)=O)c2cc(Cl)cnc21` (single isomer, unassigned) [Compound 576, 2-amino-5-chloro-1-(3-fluoro-5-hydroxy-2,6-dimethylphenyl)-1H-pyrrolo[2,3-b]pyridine-3-carboxamide], the IC50 on PKMYT1 and on LCK was 100 to 1000 nM throughout.
Consider `Cc1cnc2c(c1)c(C(N)=O)c(N)n2-c1c(C)ncc(O)c1C` [Compound 561, 2-Amino-1-(5-hydroxy-2,4-dimethyl-3-pyridyl)-5-methyl-pyrrolo[2,3-b]pyridine-3-carboxamide], for which the values for the concentration for half-maximal inhibition (IC50) at PKMYT1 and on LCK were 50 to 100 nM and 100 to 1000 nM, respectively.
As for `COc1cnc(C)c(-n2c(N)c(C(N)=O)c3cc(Cl)cnc32)c1C` [Compound 542, 2-amino-5-chloro-1-(5-methoxy-2,4-dimethylpyridin-3-yl)-1H-pyrrolo[2,3-b]pyridine-3-carboxamide], the figures for the IC50 on PKMYT1 and at LCK were above 1000 nM and 100 to 1000 nM, respectively.

(Values after US20250388583A1, “COMPOUNDS AND METHOD FOR PKMYT1 INHIBITION” (Engine Biosciences Pte. Ltd., priority 2022, published 2025).)
